# Test results published in patent US9073880B2, “2-(2-phenylethenyl) 1,3-benzodiazepine derivatives useful for the treatment of cancer” (Yissum Research Development Company of the Hebrew …, priority 2010, dated 2015).
# What was measured:
# IRS1 = IRS1 levels and serine phosphorylation in MCF7 cells (western blot, time course); format: cell-based, human; conditions: 10 μM
# Method: Tyrosine autophosphorylation of the β-subunit of IGF-1R as well as downstream signaling induced by IGF-1R were assayed in human breast cancer MCF7 cells and in melanoma A375 cells. Cells were seeded in 6-well plates (250,000 A375 cells/well and 300,000 MCF7 cells/well) and 24 hours later medium was replaced by serum-free medium (RPMI supplemented with 100 units/ml penicillin and 100 μg/ml streptomycin). MCF7 cells were exposed for 48 hr to compound 3 at 10 μM concentration, and then stimulated for 5 minutes with 50 ng/ml IGF-1, washed twice with PBS and lysed by boiling sample buffer (10% glycerol, 50 mM Tris-HCl, pH 6.8, 3% SDS, and 5% (3-mercaptoethanol). Equal amounts of protein per lane were separated by 8% SDS-PAGE and transferred to a nitrocellulose membrane (Sartorius AG). Phosphorylated proteins were immunoblotted with anti-phosphoIGF-1R (pIGF-1R), anti-phosphotyrosine-IRS1 (pY-IRS I) and anti-phospho(T308)Akt (pPKB) antibodies. Detection was performed with horseradish peroxidase-conjugated secondary antibody using the ECL system. Blots were then stripped of antibodies, blocked with TBST with 5% low fat milk and re-probed with antibodies detecting both the phosphorylated and the non-phosphorylated corresponding proteins e.g. IGF-1Rβ, IRS1 and PKB. […]
# [1] = system: human melanoma A375 cells; assay: Cell proliferation, A375 (Example 2); format: cell-based; conditions: A-375, 72 hours, 0.1% DMSO, methylene blue
# Method: Human ovary cancer A2780 cells lines were seeded at a density of 5000 cells/well, human melanoma A375 cells were plated at a density of 2,500 cells/well, human colon carcinoma HCT15 cells were plated at a density of 3,000 cells/well, human prostate carcinoma PC3 cells were plated at a density of 1,500 cells/well, human breast carcinoma MCF7 cells were plated at a density of 5,000 cells/well, human breast carcinoma MDA MB 468 cells were plated at a density of 6,000 cells/well, human myeloma U266, RPMI8226 and CAG cells were plated at a density of 10,000 cells/well. All cells were plated in 96-well plates in 90 μl growth medium containing 10% FCS, 100 units/ml penicillin and 100 μg/ml streptomycin. Compound 3 was added a day later in […] of 1% DMSO in DDW to obtain final concentrations of 0, 0.1, 0.3, 1, 3, and 10 μM. The final concentration of DMSO (0.1% DMSO) was kept constant in all samples. […] The optical density values were read at 630 nm in ELISA plate reader. Non-adhered cells were exposed to WST-1 reagent for 5 hours following 72 hours treatment with the inhibitors, and optical density values were read at 630 nm in ELISA plate reader. The data was analyzed in Microsoft Excel, using the vehicle control as 100% proliferation. […]
# [2] = system: human ovary A2780 tumor cells; assay: Survival of nude mice bearing intraperitoneal human ovarian A2780 tumors; format: in vivo; conditions: for median survival time: IV, control 28 days
# Method: In order to determine the effect of the compounds of the present invention on the growth and spread of tumors in-vivo, the compounds were administered to nude mice bearing human ovarian cancer. […] A model of peritoneal carcinomatosis formation, involving intraperitoneal administration of human ovary A2780 tumor cells, was used.
# Two million human ovarian A2780 cells were injected to the peritoneum of 4-5 weeks old female nude mice. A week later, treatments with compound 3 or vehicle were initiated. Compound 3 was administered IV, daily at a dose of 3 mg/kg or weekly at a dose of 12 mg/kg for the time periods indicated in FIG. 7. The control group was weekly administered (IV) with the vehicle (20% 2-hydroxypropyl-b-cyclodextrin). Each group included 10 mice.
# IGF-1R = target: T1, IGF-1R (Homo sapiens, UniProt P08069); assay: IGF1-induced IGF-1R auto-phosphorylation in MCF7 cells (western blot); format: cell-based; conditions: 10 μM, FIG. 3
# T1 construct: endogenous in cells; host or cells: MCF7 human breast cancer cells
# T1 sequence (P08069 31-1367): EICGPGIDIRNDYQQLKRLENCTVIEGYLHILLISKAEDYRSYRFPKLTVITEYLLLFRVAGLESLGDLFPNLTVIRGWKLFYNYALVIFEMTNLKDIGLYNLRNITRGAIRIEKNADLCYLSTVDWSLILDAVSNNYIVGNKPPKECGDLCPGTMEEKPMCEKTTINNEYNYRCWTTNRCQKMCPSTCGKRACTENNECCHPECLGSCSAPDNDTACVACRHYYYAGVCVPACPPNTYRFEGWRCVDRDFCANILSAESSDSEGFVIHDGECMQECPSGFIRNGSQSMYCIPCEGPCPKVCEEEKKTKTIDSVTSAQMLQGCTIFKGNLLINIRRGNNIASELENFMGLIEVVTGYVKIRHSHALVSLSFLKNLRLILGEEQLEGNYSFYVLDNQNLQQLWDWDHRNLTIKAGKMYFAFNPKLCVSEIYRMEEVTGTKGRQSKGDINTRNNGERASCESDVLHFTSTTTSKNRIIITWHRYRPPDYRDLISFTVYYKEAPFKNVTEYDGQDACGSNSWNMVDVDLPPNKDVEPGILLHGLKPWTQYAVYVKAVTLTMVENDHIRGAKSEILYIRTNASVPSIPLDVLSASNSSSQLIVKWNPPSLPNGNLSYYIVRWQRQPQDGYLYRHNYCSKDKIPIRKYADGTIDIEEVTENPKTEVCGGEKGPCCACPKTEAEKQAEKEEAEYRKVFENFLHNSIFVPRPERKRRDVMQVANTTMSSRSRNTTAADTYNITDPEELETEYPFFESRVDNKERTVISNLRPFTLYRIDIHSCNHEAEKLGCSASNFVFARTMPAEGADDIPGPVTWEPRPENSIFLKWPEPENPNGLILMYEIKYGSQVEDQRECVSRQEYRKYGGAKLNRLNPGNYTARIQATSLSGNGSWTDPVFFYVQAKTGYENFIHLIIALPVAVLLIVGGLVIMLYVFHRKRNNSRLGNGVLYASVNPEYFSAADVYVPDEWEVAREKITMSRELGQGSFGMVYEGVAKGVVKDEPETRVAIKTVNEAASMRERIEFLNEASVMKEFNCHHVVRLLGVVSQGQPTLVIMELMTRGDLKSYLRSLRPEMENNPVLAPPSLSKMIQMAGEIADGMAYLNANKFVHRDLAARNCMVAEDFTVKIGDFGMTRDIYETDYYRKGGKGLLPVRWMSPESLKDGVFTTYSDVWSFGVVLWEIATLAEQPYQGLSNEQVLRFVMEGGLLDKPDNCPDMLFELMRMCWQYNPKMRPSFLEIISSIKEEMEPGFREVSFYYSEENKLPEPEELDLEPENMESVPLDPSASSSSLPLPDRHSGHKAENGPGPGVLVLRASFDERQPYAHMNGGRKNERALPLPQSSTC
# Method: Tyrosine autophosphorylation of the β-subunit of IGF-1R as well as downstream signaling induced by IGF-1R were assayed in human breast cancer MCF7 cells and in melanoma A375 cells. Cells were seeded in 6-well plates (250,000 A375 cells/well and 300,000 MCF7 cells/well) and 24 hours later medium was replaced by serum-free medium (RPMI supplemented with 100 units/ml penicillin and 100 μg/ml streptomycin). MCF7 cells were exposed for 48 hr to compound 3 at 10 μM concentration, and then stimulated for 5 minutes with 50 ng/ml IGF-1, washed twice with PBS and lysed by boiling sample buffer (10% glycerol, 50 mM Tris-HCl, pH 6.8, 3% SDS, and 5% (3-mercaptoethanol). Equal amounts of protein per lane were separated by 8% SDS-PAGE and transferred to a nitrocellulose membrane (Sartorius AG). Phosphorylated proteins were immunoblotted with anti-phosphoIGF-1R (pIGF-1R), anti-phosphotyrosine-IRS1 (pY-IRS I) and anti-phospho(T308)Akt (pPKB) antibodies. Detection was performed with horseradish peroxidase-conjugated secondary antibody using the ECL system. Blots were then stripped of antibodies, blocked with TBST with 5% low fat milk and re-probed with antibodies detecting both the phosphorylated and the non-phosphorylated corresponding proteins e.g. IGF-1Rβ, IRS1 and PKB.
structure (smiles),measurement,setting,value
O=c1c(O)cc2cnc(/C=C/c3cc(O)c(O)c(Br)c3)sc-2c1O [Compound 3],levels of IRS1,"IRS1; 48 hr, FIG. 3",significant decrease
same,time course of effect on IRS1 phosphorylation and levels,"IRS1; various time periods, FIG. 5",elimination of IRS1 induced by compound 3 is subsequent to IRS1 serine phosphorylation
same,IC50,[1],1000 nM
same,median survival time compared to Cisplatin and Sunitinib,"[2]; 50 mg/kg daily IV vs Cisplatin 3 mg/kg ip 3 times a week for two weeks and Sunitinib 40 mg/kg daily PO, data not shown",preferable median survival time
same,median survival time,"[2]; daily, 3 mg/kg, FIG. 7",over 81 days
same,median survival time,"[2]; weekly, 12 mg/kg, FIG. 7",over 81 days
same,survival compared to control mice,"[2]; intravenous treatment, 3 mg/kg daily or 12 mg/kg weekly, FIG. 7",dramatically increased survival
same,IGF1-induced auto-phosphorylation of IGF-1R,"IGF-1R; 48 hr, 50 ng/ml IGF-1 5 minutes",significantly inhibited
same,duration of the inhibitory effect,IGF-1R,more than 48 hr
